In patent US20240041042A1, “1-(PYRIDYL)-5-AZINYLPYRAZOLE DERIVATIVES, AND THEIR USE FOR CONTROL OF UNDESIRED PLANT GROWTH” (Bayer Aktiengesellschaft, priority 2020, published 2024):

How the values were obtained:
Format in all cases: in vivo
Setaria viridis (SETVI) = assay: Pre-emergence herbicidal action against SETVI
In short: (§1)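 Read-out is visual percent damage relative to untreated pots, with 100% meaning dead plants and 0% meaning no difference, assessed roughly three weeks after treatment. Compounds were applied pre-emergence to the covering soil at up to 320 g/ha.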

Viola tricolor (VIOTR) [1] = assay: Post-emergence herbicidal action against VIOTR
In short: (§2)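 Rates were 320 g/ha or below, applied as aqueous WP/EC spray with 0.5% additive (600 l/ha) onto one-leaf-stage plants. About 3 weeks later in the greenhouse, damage was scored visually against untreated plants on a 0–100% scale, where 100% means plants died.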

[2] = tested on: Verconica persica (VERPE); assay: Pre-emergence herbicidal action against VERPE
In short: as §1

Lolium rigidum (LOLRI) = assay: Pre-emergence herbicidal action against LOLRI
In short: as §1

[3] = tested on: Pharbitis purpurea (PHBPU); assay: Pre-emergence herbicidal action against PHBPU
In short: as §1

[4] = tested on: Verconica persica (VERPE); assay: Post-emergence herbicidal action against VERPE
In short: as §2

Avena fatua (AVEFA) = assay: Post-emergence herbicidal action against AVEFA; conditions: visual rating about 3 weeks after treatment
In short: as §2

[5] = tested on: Matricaria inodora (MATIN); assay: Post-emergence herbicidal action against MATIN
In short: as §2

Viola tricolor (VIOTR) [6] = assay: Pre-emergence herbicidal action against VIOTR
In short: as §1

[7] = tested on: Pharbitis purpurea (PHBPU); assay: Post-emergence herbicidal action against PHBPU
In short: as §2

| Compound | Pre-emergence action against SETVI in % (Setaria viridis (SETVI); dosage 80 g/ha) [%] | Pre-emergence action against SETVI in % (Setaria viridis (SETVI); dosage 320 g/ha) [%] | Post-emergence action against VIOTR in % (Viola tricolor (VIOTR) [1]; 80 g/ha) [%] | Post-emergence action against VIOTR in % (Viola tricolor (VIOTR) [1]; 320 g/ha) [%] | Pre-emergence action against VERPE in % ([2]; dosage 80 g/ha) [%] | Pre-emergence action against VERPE in % ([2]; dosage 320 g/ha) [%] | Pre-emergence action against LOLRI in % (Lolium rigidum (LOLRI); dosage 80 g/ha) [%] | Pre-emergence action against LOLRI in % (Lolium rigidum (LOLRI); dosage 320 g/ha) [%] | Pre-emergence action against PHBPU in % ([3]; dosage 80 g/ha) [%] | Pre-emergence action against PHBPU in % ([3]; dosage 320 g/ha) [%] | Post-emergence action against VERPE in % ([4]; 320 g/ha, VERPE) [%] | Post-emergence action against VERPE in % ([4]; dosage 80 g/ha) [%] | Post-emergence action against AVEFA in % (Avena fatua (AVEFA); 80 g/ha) [%] | Post-emergence action against AVEFA in % (Avena fatua (AVEFA); 320 g/ha) [%] | Post-emergence action against MATIN in % ([5]; dosage 320 g/ha) [%] | Pre-emergence action against VIOTR in % (Viola tricolor (VIOTR) [6]; 320 g/ha, Viola tricolor) [%] | Pre-emergence action against VIOTR in % (Viola tricolor (VIOTR) [6]; dosage 80 g/ha) [%] | Post-emergence action against PHBPU in % ([7]; dosage 80 g/ha) [%] | Post-emergence action against PHBPU in % ([7]; dosage 320 g/ha) [%] | Post-emergence action against MATIN in % ([5]; dosage 80 g/ha) [%] |
| --- | --- | --- | --- | --- | --- | --- | --- | --- | --- | --- | --- | --- | --- | --- | --- | --- | --- | --- | --- | --- |
| C[C@@H](Oc1nn(-c2ncccc2F)c(-c2ccc(F)nc2)c1C1CC1)C(=O)O [Example I-342] | 90 | 100 | 90 | 90 | 90 | 100 | 100 | 100 | 80 | 90 | 90 | 90 | 90 | 100 | 100 | 100 | 100 | 80 | 90 |  |
| CCOC(=O)COc1nn(-c2ccccn2)c(-c2ccc(F)nc2)c1Cl [Example I-85] | 100 | 100 | 100 | 100 | 100 | 100 |  | 100 | 90 | 100 | 90 | 90 |  | 100 | 90 | 100 | 100 | 90 | 90 | 80 |
| COC(=O)COc1nn(-c2nc(F)ccc2F)c(-c2cncc(F)c2)c1C1CC1 [Example I-164] | 100 | 100 |  | 80 | 90 | 100 | 100 | 100 | 80 | 90 | 80 | 80 | 80 | 80 | 80 | 100 | 100 | 80 | 90 |  |
| COC(=O)CCOC(=O)[C@@H](C)Oc1nn(-c2ccccn2)c(-c2cncc(F)c2)c1Cl [Example I-196] | 90 | 100 | 80 | 80 | 90 | 100 | 100 | 100 | 90 | 90 | 90 | 80 | 80 | 90 | 80 | 100 | 90 | 90 | 90 |  |
| CCOC(=O)[C@@H](C)Oc1nn(-c2ncccc2F)c(-c2ccc(F)nc2)c1C1CC1 [Example I-375] | 90 | 100 | 80 | 90 | 100 | 100 | 100 | 100 | 80 | 90 | 90 | 80 | 90 | 90 | 80 | 100 | 100 | 80 | 90 |  |
| COC(=O)[C@@H](C)Oc1nn(-c2ncccc2F)c(-c2ccc(F)nc2)c1C1CC1 [Example I-307] | 100 | 100 | 80 | 90 | 90 | 100 | 100 | 100 |  | 90 | 90 | 90 | 90 | 90 | 80 | 100 | 100 | 80 | 90 |  |
| COC(=O)[C@@H](C)Oc1nn(-c2nc(F)ccc2F)c(-c2cncc(F)c2)c1Br [Example I-191] | 80 | 100 |  | 80 | 100 | 100 | 90 | 90 | 80 | 90 | 90 | 80 | 80 | 90 | 80 | 100 | 100 | 90 | 100 |  |
| COCCOC(=O)COc1nn(-c2ccccn2)c(-c2ccc(F)nc2)c1Br [Example I-96] | 100 | 100 | 90 | 90 | 90 | 90 | 90 | 100 | 90 | 90 | 90 | 80 | 80 | 90 | 80 | 90 |  | 90 | 90 |  |
